How the values were obtained:
Staph. aureus Smith = experiment: Minimum inhibitory concentration, serial dilution in synthetic bacterial growth medium; type: cell-based; conditions: 35-37 °C, 16-20 hours, value in parentheses: a higher concentration did not always inhibit growth
Protocol: (§1) The above fluorinated dipeptides are prepared in sterile concentrated aqueous solutions. Serial dilutions are made to give a range of concentrations of the test substances. Samples of the dilutions are mixed with an appropriate sterile synthetic bacterial growth medium in test tubes. The tubes are then inoculated with an appropriate test organism and incubated at 35°-37° C. for 16-20 hours. […]

Bacillus subtilis 9466 = experiment: as above; type: cell-based; conditions: 35-37 °C, 16-20 hours, value in parentheses: a higher concentration did not always inhibit growth
Protocol: as §1

Enterococcus 89 = experiment: as above; type: cell-based; conditions: 35-37 °C, 16-20 hours
Protocol: as §1

Strep. faecalis 10541 = experiment: as above; type: cell-based; conditions: 35-37 °C, 16-20 hours, value in parentheses: a higher concentration did not always inhibit growth
Protocol: as §1

Staph. aureus (Smith) = experiment: In vivo mouse protection test (CD50, 7-day survival after intraperitoneal infection); parameters: species or system Charles River mice; conditions: peptide alone, subcutaneous, e.g. 1 and 5 hours post-infection, mice infected i.p. with 10-100 x LD50 Staph. aureus (Smith)
Protocol: Charles River mice weighing approximately 20 g. each, were infected intraperitoneally with 10-100 times the LD50 of the infecting organism. At predetermined intervals post-infection, e.g., 1 and 5 hours, mice were dosed subcutaneously with graded doses of the new dipeptide, antibiotic and a combination thereof. The number of mice surviving each treatment for 7 days post-infection was observed and the CD50 is calculated. The results using D-cycloserine as an example of the antiobiotic and representative fluorinated dipeptides are shown in Table II, using Staph. aureus (Smith) as the infecting organism. The values are listed in mg./kg.

Kleb. pneumonise 8045 = experiment: Minimum inhibitory concentration, serial dilution in synthetic bacterial growth medium; type: cell-based; conditions: 35-37 °C, 16-20 hours, value in parentheses: a higher concentration did not always inhibit growth
Protocol: as §1

E. coli Juhl = experiment: as above; type: cell-based; conditions: 35-37 °C, 16-20 hours, value in parentheses: a higher concentration did not always inhibit growth
Protocol: as §1

Shigella sonnei 9290 = experiment: as above; type: cell-based; conditions: 35-37 °C, 16-20 hours, value in parentheses: a higher concentration did not always inhibit growth
Protocol: as §1

Row | Structure (SMILES) | Minimum inhibitory concentration (Staph. aureus Smith) | Minimum inhibitory concentration (Bacillus subtilis 9466) | Minimum inhibitory concentration (Enterococcus 89) | Minimum inhibitory concentration (Strep. faecalis 10541) | CD50, Peptide (Staph. aureus (Smith)) [mg/kg] | Minimum inhibitory concentration (Kleb. pneumonise 8045) | Minimum inhibitory concentration (E. coli Juhl) | Minimum inhibitory concentration (Shigella sonnei 9290)
1 | N[C@H](CF)C(=O)N[C@@H](CCC(=O)O)C(=O)O [Example 3, βF-D-Ala-L-Glu] | 800 | 3.1 | 25 | 50 | – | – | – | –
2 | N[C@H](CF)C(=O)N[C@@H](Cc1ccccc1)C(=O)O [Example 2, β-fluoro-D-alanyl-L-phenylalanine] | – | 3.1 | 25 | 0.78 | 75 to 150 | – | – | –
3 | CC(C)(NC(=O)[C@H](N)CF)C(=O)O [Example 5, βF-D-Ala-Aibu] | 800 | – | 25 | 800 | – | 800 | – | –
4 | C[C@H](NC(=O)[C@H](N)CF)C(=O)O [Example 1, β-fluoro-D-alanyl-L-alanine] | – | – | 200 | – | 9.4 | – | – | –
5 | CC(C)C[C@H](NC(=O)[C@H](N)CF)C(=O)O [Example 4, F-D-Ala-L-Leu] | 800 | 6.2 | 25 | 3.1 | – | 800 | 800 | 800
6 | CC(C)[C@H](NC(=O)[C@H](N)CF)C(=O)O [Example 6, βF-D-Ala-L-Val] | 800 | – | 6.2 | – | – | 800 | 800 | –
